The text below walks through data of patent US20120094998A1, “Oligomer-Protein Tyrosine Kinase Inhibitor Conjugates” (Nektar Therapeutics, priority 2009, published 2012).

Values after ≈ are worked out from the molar mass of the structure shown. Like-named read-outs stand apart in the source and are kept apart here.

One data set in a line: Thermodynamic solubility. It counts as physicochemical. Conditions: aqueous buffer, thermodynamic from solid; phosphate buffered saline, pH 7.4; ambient temperature overnight. As for the experimental part: Test compound (2.5 mg of solid; n=1) is weighed in a clear glass vial and buffer (0.5 mL) is added (phosphate buffered saline, pH 7.4). The solution is agitated at ambient temperature overnight using a vial roller system. […] Duplicate aliquots (50 μL) are sampled from the filtrate and diluted with one volume of 0.1 N hydrochloric acid and methanol (1:1 v/v) before analysis by HPLC-UV. […] The concentration of test compound in the filtrate is quantified relative to the concentration standard.
Analysis is performed using a gradient HPLC-UV system with a total cycle time of six minutes.

A short description of data set [1]: Caco-2 permeability (bi-directional; pH 7.4/pH 7.4). To be noted: human; for Papp A→B at 120 min, 10 μM: Caco-2, pH 7.4, read-out: Permeability (cm^2/s × 10^6). It counts as in vitro ADME. As to the method:
Caco-2 cells are used as an in vitro model of the human intestinal epithelium and permit assessment of the intestinal permeability of potential drugs. Test compound is added to either the apical or basolateral side of a confluent monolayer of Caco-2 cells and permeability is measured by monitoring the appearance of the test compound on the opposite side of the membrane using LC-MS/MS. Apparent permeability (Papp) coefficients, efflux ratio for the test compound and recovery values were determined.
To measure the permeability of test compound in the apical to basolateral (A-B) and basolateral to apical (B-A) direction across Caco-2 cells.
Caco-2 cells obtained from the ATCC are used between passage numbers 40-60. Cells are seeded on to Millipore Multiscreen Caco-2 plates at 1×10^5 cells/cm^2. They are cultured for 20 days in DMEM and media is changed every two or three days. On day 20 the permeability study is performed.
On day 20, the monolayers are prepared by rinsing both basolateral and apical surfaces twice with HBSS at 37° C. Cells are then incubated with HBSS in both apical and basolateral compartments for 40 min to stabilize physiological parameters. HBSS is then removed from the apical compartment and replaced with test compound dosing solutions. […] The fluorescent integrity marker lucifer yellow is also included in the dosing solution. Analytical standards are made from dosing solutions. The apical compartment inserts are then placed into ‘companion’ plates containing fresh HBSS. For basolateral to apical (B-A) permeability determination the experiment is initiated by replacing buffer in the inserts then placing them in companion plates containing dosing solutions. At 120 minutes the companion plate is removed and apical and basolateral samples diluted for analysis by LC-MS/MS. Test compound permeability was assessed in duplicate. On each plate, compounds of known permeability characteristics were run as controls.
Test and control compounds were quantified by LC-MS/MS cassette analysis using a 5-point calibration with appropriate dilution of the samples. Cyprotex generic analytical conditions were used. The starting concentration (C0) and experimental recovery were calculated from both apical and basolateral compartment concentrations.
The integrity of the monolayers throughout the experiment was checked by monitoring lucifer yellow permeation using fluorimetric analysis. Lucifer yellow permeation is low if monolayers have not been damaged. […] If lucifer yellow Papp values are above QC limits in both replicate wells for a test compound, the compound was re-tested.
Data Analysis: The permeability coefficient for each compound (Papp) is calculated from the following equation: […]
wherein dQ/dt is the rate of permeation of the drug across the cells, C0 is the donor compartment concentration at time zero and A is the area of the cell monolayer. C0 is obtained from analysis of donor and receiver compartments at the end of the incubation period. It is assumed that all of the test compound measured after 120 minutes incubation was initially present in the donor compartment at 0 minutes. An efflux ratio (ER) is derived as follows:
Talinolol (a known P-gp substrate) is also included as a control compound to assess whether functional P-gp is present in the Caco-2 cell monolayer.

Data set [2] concerns the target T1, ABL (Homo sapiens, UniProt P00519). The data set is described as follows: Off-chip mobility-shift kinase assay (Caliper LABCHIP), ABL. To be noted: for ABL AVG % Activity at 1.0E−09: concentration 1.0E−09; for ABL AVG % Activity at 1.0E−10: concentration 1.0E−10; for ABL AVG % Activity at 3.0E−09: concentration 3.0E−09; for ABL AVG % Activity at 3.0E−10: concentration 3.0E−10; for ABL AVG % Activity at 1.0E−11: concentration 1.0E−11; for ABL AVG % Activity at 3.0E−11: concentration 3.0E−11.

The target of the next data set is PDGFRβ (Homo sapiens, UniProt P09619). The data set is described as follows: Off-chip mobility-shift kinase assay (Caliper LABCHIP), PDGFR.
Another data set concerns the target cKIT (Homo sapiens, UniProt P10721). The data set is described as follows: Off-chip mobility-shift kinase assay (Caliper LABCHIP), C-kit.
Data set [3] addresses T1, ABL.
Setting [4] is: imatinib-corresponding compounds.
Where [5] appears, read: dasatinib-corresponding compounds.

T1 sequence (P00519 whole entry): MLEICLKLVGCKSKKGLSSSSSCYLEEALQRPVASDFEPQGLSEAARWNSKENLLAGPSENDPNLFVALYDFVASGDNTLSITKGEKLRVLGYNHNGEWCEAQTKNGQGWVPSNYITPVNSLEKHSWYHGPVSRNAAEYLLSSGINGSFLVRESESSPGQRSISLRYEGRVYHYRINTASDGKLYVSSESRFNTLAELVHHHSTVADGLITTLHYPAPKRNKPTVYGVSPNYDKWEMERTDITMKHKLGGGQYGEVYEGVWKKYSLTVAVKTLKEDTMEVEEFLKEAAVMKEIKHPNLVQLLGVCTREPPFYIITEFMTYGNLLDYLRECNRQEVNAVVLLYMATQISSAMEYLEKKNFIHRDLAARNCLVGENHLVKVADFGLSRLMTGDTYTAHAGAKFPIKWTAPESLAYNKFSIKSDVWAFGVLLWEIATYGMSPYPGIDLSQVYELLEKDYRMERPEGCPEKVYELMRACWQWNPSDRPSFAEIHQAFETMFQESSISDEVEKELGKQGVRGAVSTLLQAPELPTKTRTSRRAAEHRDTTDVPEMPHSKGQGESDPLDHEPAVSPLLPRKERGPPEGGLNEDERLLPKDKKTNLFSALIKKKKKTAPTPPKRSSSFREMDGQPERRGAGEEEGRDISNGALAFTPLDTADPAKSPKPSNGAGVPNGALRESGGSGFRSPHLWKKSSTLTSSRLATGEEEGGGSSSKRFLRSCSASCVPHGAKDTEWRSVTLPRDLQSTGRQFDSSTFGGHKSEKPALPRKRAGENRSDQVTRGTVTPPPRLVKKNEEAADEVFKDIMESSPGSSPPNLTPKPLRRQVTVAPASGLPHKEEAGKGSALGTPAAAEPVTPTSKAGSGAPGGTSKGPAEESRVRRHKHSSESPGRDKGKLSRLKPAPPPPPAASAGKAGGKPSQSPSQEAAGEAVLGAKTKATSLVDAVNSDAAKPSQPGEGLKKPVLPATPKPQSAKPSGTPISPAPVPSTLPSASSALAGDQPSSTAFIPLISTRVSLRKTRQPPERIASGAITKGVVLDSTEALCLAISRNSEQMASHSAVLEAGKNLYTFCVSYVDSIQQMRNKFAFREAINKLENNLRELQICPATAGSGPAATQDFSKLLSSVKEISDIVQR
Chain of PDGFRβ (P09619 33-1106): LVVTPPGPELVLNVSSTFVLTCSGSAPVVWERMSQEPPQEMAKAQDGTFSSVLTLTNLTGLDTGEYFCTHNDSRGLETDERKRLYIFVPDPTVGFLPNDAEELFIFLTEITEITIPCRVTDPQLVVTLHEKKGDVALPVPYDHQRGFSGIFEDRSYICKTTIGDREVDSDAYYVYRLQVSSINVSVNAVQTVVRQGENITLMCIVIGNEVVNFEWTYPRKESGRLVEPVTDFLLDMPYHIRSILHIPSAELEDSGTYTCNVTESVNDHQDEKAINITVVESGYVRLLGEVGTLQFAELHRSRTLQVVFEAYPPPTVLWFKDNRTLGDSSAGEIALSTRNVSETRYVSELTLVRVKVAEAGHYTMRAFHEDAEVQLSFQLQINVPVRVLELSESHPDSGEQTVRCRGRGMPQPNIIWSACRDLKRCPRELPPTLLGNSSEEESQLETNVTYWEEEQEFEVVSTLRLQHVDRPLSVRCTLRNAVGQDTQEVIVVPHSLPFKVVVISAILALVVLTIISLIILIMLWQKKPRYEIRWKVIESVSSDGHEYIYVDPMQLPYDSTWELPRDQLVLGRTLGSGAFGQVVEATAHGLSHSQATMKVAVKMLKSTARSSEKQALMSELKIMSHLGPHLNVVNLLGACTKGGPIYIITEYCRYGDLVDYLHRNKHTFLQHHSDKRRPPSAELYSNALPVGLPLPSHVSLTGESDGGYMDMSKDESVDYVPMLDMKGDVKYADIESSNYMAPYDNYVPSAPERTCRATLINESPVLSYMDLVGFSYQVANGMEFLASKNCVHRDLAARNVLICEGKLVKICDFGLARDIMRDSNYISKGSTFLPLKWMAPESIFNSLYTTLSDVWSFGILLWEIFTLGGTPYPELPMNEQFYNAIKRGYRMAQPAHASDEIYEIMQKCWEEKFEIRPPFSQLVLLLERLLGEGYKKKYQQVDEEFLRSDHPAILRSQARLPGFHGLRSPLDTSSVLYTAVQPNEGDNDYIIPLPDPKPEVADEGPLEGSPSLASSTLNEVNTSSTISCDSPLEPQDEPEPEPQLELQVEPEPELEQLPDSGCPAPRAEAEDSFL
Chain of cKIT (P10721 26-976): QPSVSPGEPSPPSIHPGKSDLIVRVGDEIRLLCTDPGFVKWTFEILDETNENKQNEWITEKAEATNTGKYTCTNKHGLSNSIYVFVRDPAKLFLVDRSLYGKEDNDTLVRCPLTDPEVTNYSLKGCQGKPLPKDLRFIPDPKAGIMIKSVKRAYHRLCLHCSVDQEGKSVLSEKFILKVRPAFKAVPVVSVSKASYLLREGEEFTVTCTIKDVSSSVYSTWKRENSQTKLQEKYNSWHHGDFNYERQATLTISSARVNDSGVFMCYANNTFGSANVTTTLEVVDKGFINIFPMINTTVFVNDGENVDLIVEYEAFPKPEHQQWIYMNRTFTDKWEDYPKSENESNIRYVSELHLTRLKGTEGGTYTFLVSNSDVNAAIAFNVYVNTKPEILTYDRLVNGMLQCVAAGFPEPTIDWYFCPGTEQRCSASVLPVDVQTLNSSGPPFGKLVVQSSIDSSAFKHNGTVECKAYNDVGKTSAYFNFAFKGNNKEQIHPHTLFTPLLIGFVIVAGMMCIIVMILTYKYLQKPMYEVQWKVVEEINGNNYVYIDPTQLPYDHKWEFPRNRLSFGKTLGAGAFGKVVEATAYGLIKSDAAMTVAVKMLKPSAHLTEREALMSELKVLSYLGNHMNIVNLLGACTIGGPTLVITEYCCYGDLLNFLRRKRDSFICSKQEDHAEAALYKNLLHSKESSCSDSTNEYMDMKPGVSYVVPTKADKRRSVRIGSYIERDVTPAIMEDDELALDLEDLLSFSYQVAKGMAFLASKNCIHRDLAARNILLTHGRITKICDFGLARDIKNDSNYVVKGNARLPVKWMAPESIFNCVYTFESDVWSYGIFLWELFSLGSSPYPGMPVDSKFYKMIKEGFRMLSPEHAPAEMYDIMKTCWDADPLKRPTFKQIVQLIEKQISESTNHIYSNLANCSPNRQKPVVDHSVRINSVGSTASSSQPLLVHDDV

`COCCOCCOCCOCCOCCOCCOCCNCc1ccc(C(=O)Nc2ccc(C)c(Nc3nccc(-c4cccnc4)n3)c2)cc1`: in “Thermodynamic solubility”, the solubility was 3600 µg/mL (≈ 4.91 mM). Besides, the Papp A→B at 120 min, 10 μM in data set [1] worked out at 0.04 ± 0.01 ×10⁻⁶ cm/s. In addition, in data set [1] (Caco-2, ratio of B-A and A-B permeabilities, 10 μM, 120 minutes), the efflux ratio at 120 min, 10 μM amounted to 391. The IC50 at ABL [2] is at least 3000 nM. The “ABL AVG % Activity at 1.0E−06” value at ABL [2] (concentration 1.0E−06, imatinib-corresponding compounds) was 73%. On ABL [2] (concentration 1.0E−07, imatinib-corresponding compounds), the “ABL AVG % Activity at 1.0E−07” value stood at 90%. The “ABL AVG % Activity at 1.0E−08” value at ABL [2] (concentration 1.0E−08, imatinib-corresponding compounds) amounted to 94%. At ABL [2] (setting [4]), the “ABL AVG % Activity at 1.0E−09” value stood at 97%, the “ABL AVG % Activity at 1.0E−10” value amounted to 97%, the “ABL AVG % Activity at 3.0E−09” value was determined as 96% and the “ABL AVG % Activity at 3.0E−10” value turned out to be 97%. Also, the “ABL AVG % Activity at 3.0E−06” value on ABL [2] (concentration 3.0E−06, imatinib-corresponding compounds) came out at 59%. For the same molecule, the “ABL AVG % Activity at 3.0E−07” value on ABL [2] (concentration 3.0E−07, imatinib-corresponding compounds) came to 82%. Moreover, the “ABL AVG % Activity at 3.0E−08” value on ABL [2] (concentration 3.0E−08, imatinib-corresponding compounds) is given as 94%. Besides, at PDGFRβ, the IC50 came out at 230 nM. Besides, on PDGFRβ (concentration 1.0E−06), the “PDGFR AVG % Activity at 1.0E−06” value came to 13%. The “PDGFR AVG % Activity at 1.0E−07” value at PDGFRβ (concentration 1.0E−07) stood at 67%. In addition, on PDGFRβ (concentration 1.0E−08), the “PDGFR AVG % Activity at 1.0E−08” value worked out at 96%. Further, the “PDGFR AVG % Activity at 1.0E−09” value at PDGFRβ (concentration 1.0E−09) was found to be 93%. Besides, the “PDGFR AVG % Activity at 1.0E−10” value on PDGFRβ (concentration 1.0E−10) was 97%. Also, the “PDGFR AVG % Activity at 3.0E−06” value at PDGFRβ (concentration 3.0E−06) is on record as 0%. For the same molecule, the “PDGFR AVG % Activity at 3.0E−07” value on PDGFRβ (concentration 3.0E−07) was found to be 39%. Also, on PDGFRβ (concentration 3.0E−08), the “PDGFR AVG % Activity at 3.0E−08” value turned out to be 100%. The “PDGFR AVG % Activity at 3.0E−09” value on PDGFRβ (concentration 3.0E−09) is 99%. In addition, at PDGFRβ (concentration 3.0E−10), the “PDGFR AVG % Activity at 3.0E−10” value worked out at 93%. At cKIT, the IC50 came out at 1000 nM. Moreover, at cKIT (concentration 1.0E−05), the “C-kit AVG % Activity at 1.0E−05” value is recorded as 6%. The “C-kit AVG % Activity at 1.0E−06” value at cKIT (concentration 1.0E−06) came out at 50%. Also, the “C-kit AVG % Activity at 1.0E−07” value at cKIT (concentration 1.0E−07) amounted to 88%. On cKIT (concentration 1.0E−08), the “C-kit AVG % Activity at 1.0E−08” value came out at 100%. Also, on cKIT (concentration 3.0E−05), the “C-kit AVG % Activity at 3.0E−05” value worked out at 1%. Moreover, the “C-kit AVG % Activity at 3.0E−06” value on cKIT (concentration 3.0E−06) turned out to be 23%. Besides, on cKIT (concentration 3.0E−07), the “C-kit AVG % Activity at 3.0E−07” value came to 76%. Also, on cKIT (concentration 3.0E−08), the “C-kit AVG % Activity at 3.0E−08” value was 95%. For the same molecule, the “C-kit AVG % Activity at 3.0E−09” value on cKIT (concentration 3.0E−09) is listed as 99%.
Take `COCCOCCOCCOCC(=O)OCCN1CCN(c2cc(Nc3ncc(C(=O)Nc4c(C)cccc4Cl)s3)nc(C)n2)CC1` [mPEG3-COO-Dasatinib]: on ABL [3], the “ABL AVG % Activity at 1.0E−09” value is 2%, the “ABL AVG % Activity at 1.0E−10” value came out at 80%, the “ABL AVG % Activity at 1.0E−11” value is recorded as 98% and the “ABL AVG % Activity at 3.0E−09” value was −1%. Further, on ABL [3], the “ABL AVG % Activity at 3.0E−10” value was determined as 44% and the “ABL AVG % Activity at 3.0E−11” value stood at 92%. Moreover, the half-maximal inhibitory concentration (IC50) on ABL [2] was 0.29 nM.
As for `COCCOCCOCCOCC(=O)NC(CC(C)C)C(=O)OCCN1CCN(c2cc(Nc3ncc(C(=O)Nc4c(C)cccc4Cl)s3)nc(C)n2)CC1` (stereo not shown) [mPEG3-Leu-Dasatinib], at ABL [2], the IC50 was 0.43 nM. Moreover, at ABL [2] (setting [5]), the “ABL AVG % Activity at 1.0E−09” value came to 14%, the “ABL AVG % Activity at 1.0E−10” value is on record as 85%, the “ABL AVG % Activity at 1.0E−11” value was determined as 99% and the “ABL AVG % Activity at 3.0E−09” value is listed as 1%. Besides, at ABL [2] (setting [5]), the “ABL AVG % Activity at 3.0E−10” value was found to be 62% and the “ABL AVG % Activity at 3.0E−11” value was found to be 97%.
On to `COCCOCCOCCNCc1ccc(C(=O)Nc2ccc(C)c(Nc3nccc(-c4cccnc4)n3)c2)cc1` [mPEG3-N-Imatinib], for which the solubility in “Thermodynamic solubility” was 3300 µg/mL (≈ 5.93 mM). Also, the Papp A→B at 120 min, 10 μM in data set [1] is 0.6 ± 0.07 ×10⁻⁶ cm/s.
In the same order, the values of `COCCOCCOCCN1CCN(Cc2ccc(C(=O)Nc3ccc(C)c(Nc4nccc(-c5cccnc5)n4)c3)cc2)CC1` [mPEG3-N′-Imatinib] are 500 µg/mL (≈ 0.799 mM) and 4 ± 0.8 ×10⁻⁶ cm/s.
As for `COCCOCCOCCOCC(=O)NC(C(=O)OCCN1CCN(c2cc(Nc3ncc(C(=O)Nc4c(C)cccc4Cl)s3)nc(C)n2)CC1)C(C)C` (stereo not shown) [mPEG3-Val-Dasatinib], the IC50 at ABL [2] was found to be 0.37 nM. On ABL [2] (setting [5]), the “ABL AVG % Activity at 1.0E−09” value is 10%, the “ABL AVG % Activity at 1.0E−10” value amounted to 85%, the “ABL AVG % Activity at 1.0E−11” value came out at 98% and the “ABL AVG % Activity at 3.0E−09” value is listed as 0%. Further, at ABL [2] (setting [5]), the “ABL AVG % Activity at 3.0E−10” value is listed as 54% and the “ABL AVG % Activity at 3.0E−11” value is 95%.
Take `COCCOCCOCCOCCOCCNC(=O)OCCN1CCN(c2cc(Nc3ncc(C(=O)Nc4c(C)cccc4Cl)s3)nc(C)n2)CC1` [mPEG5-NHCOO-Dasatinib]: at ABL [2], the IC50 is 0.3 nM. Besides, at ABL [2] (setting [5]), the “ABL AVG % Activity at 1.0E−09” value was 4%, the “ABL AVG % Activity at 1.0E−10” value was found to be 80%, the “ABL AVG % Activity at 1.0E−11” value came to 97% and the “ABL AVG % Activity at 3.0E−09” value was −1%. Further, on ABL [2] (setting [5]), the “ABL AVG % Activity at 3.0E−10” value came out at 45% and the “ABL AVG % Activity at 3.0E−11” value is on record as 94%.
The molecule `COCCOCCOCCOCCOCCN1CCN(Cc2ccc(C(=O)Nc3ccc(C)c(Nc4nccc(-c5cccnc5)n4)c3)cc2)CC1` [mPEG5-N′-Imatinib] displayed a solubility in the data set “Thermodynamic solubility” of 3300 µg/mL (≈ 4.62 mM). Further, in data set [1], the Papp A→B at 120 min, 10 μM was 1 ± 0.2 ×10⁻⁶ cm/s.
In the case of `COCCOCCOCCOCCOCCOCCOCCOCCOCCNC(=O)OCCN1CCN(c2cc(Nc3ncc(C(=O)Nc4c(C)cccc4Cl)s3)nc(C)n2)CC1` [mPEG9-NHCOO-Dasatinib], the 50% inhibitory concentration (IC50) on ABL [2] was 0.31 nM. On ABL [2] (setting [5]), the “ABL AVG % Activity at 1.0E−09” value is 4%, the “ABL AVG % Activity at 1.0E−10” value was 80%, the “ABL AVG % Activity at 1.0E−11” value is 97% and the “ABL AVG % Activity at 3.0E−09” value was −1%. Further, on ABL [2] (setting [5]), the “ABL AVG % Activity at 3.0E−10” value is 47% and the “ABL AVG % Activity at 3.0E−11” value worked out at 92%.
